Measurements: PubChem BioAssay AID1963429 (Molecular Pharmacology Branch, DTP, NCI, 2024)
pIC50: −log10 of the molar value. One block for each compound: values may come before it.

Test system: 126254-015-R-J1-PDC complex spheroid growth, % test/control
Test: Anticancer human tumor 126254-015-R-J1-PDC patient-derived soft tissue sarcoma cell line growth inhibition [Asc]
Details: for pIC50: curve of first compound; for viability, T/C: stronger effect = lower value
Summary of the method: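 Complex spheroids combining tumor cells with HUVEC endothelial cells and human MSCs, at 37 degrees C, 5% CO2; agents tested alone or combined, half-log dilutions from at or near clinical Cmax, or 10 microM if Cmax unknown.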

[1] = second compound 0.03 µM, first compound 0.0316 µM
[2] = second compound 0.03 µM, first compound 0.1 µM
[3] = second compound 0.0949 µM, first compound 0.0316 µM
[4] = second compound 0.0949 µM, first compound 0.1 µM
[5] = second compound 0.3 µM, first compound 0.0316 µM
[6] = second compound 0.3 µM, first compound 0.1 µM
[7] = second compound 0.949 µM, first compound 0.0316 µM
[8] = second compound 0.949 µM, first compound 0.1 µM
[9] = second compound 3 µM, first compound 0.0316 µM
[10] = second compound 3 µM, first compound 0.1 µM
[11] = second compound 0.1 µM, first compound 0.00316 µM
[12] = second compound 0.1 µM, first compound 0.01 µM
[13] = second compound 0.1 µM, first compound 0.0316 µM
[14] = second compound 0.1 µM, first compound 0.1 µM
[15] = second compound 0.1 µM, first compound 0.316 µM
[16] = second compound 0.1 µM, first compound 1 µM
[17] = second compound 0.316 µM, first compound 0.00316 µM
[18] = second compound 0.316 µM, first compound 0.01 µM
[19] = second compound 0.316 µM, first compound 0.0316 µM
[20] = second compound 0.316 µM, first compound 0.1 µM
[21] = second compound 0.316 µM, first compound 0.316 µM
[22] = second compound 0.316 µM, first compound 1 µM
[23] = second compound 1 µM, first compound 0.00316 µM
[24] = second compound 1 µM, first compound 0.01 µM
[25] = second compound 1 µM, first compound 0.0316 µM
[26] = second compound 1 µM, first compound 0.1 µM
[27] = second compound 1 µM, first compound 0.316 µM
[28] = second compound 1 µM, first compound 1 µM
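Note: spheroids exposed to compound for seven days.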
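Throughout, for viability, T/C: 100% = DMSO vehicle control wells.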

pIC50 (second compound 0.03 µM): < 7.00
pIC50 (second compound 0.0949 µM): < 7.00
pIC50 (second compound 0.3 µM): < 7.00
pIC50 (second compound 0.949 µM): < 7.00
pIC50 (second compound 3 µM): < 7.00
Structure (SMILES): NC1CCC(NC2CC2c2ccccc2)CC1 (stereo not given) + CCN1C(C(=O)NC23CCC(C(=O)O)(CC2)CC3)C(c2cccc(Cl)c2F)C2(C(=O)Nc3cc(Cl)ccc32)C12CCCCC2
viability, T/C (second compound 0.03 µM, first compound 0.000316 µM): 94.7%
viability, T/C (second compound 0.03 µM, first compound 0.001 µM): 97.4%
viability, T/C (second compound 0.03 µM, first compound 0.00316 µM): 99.1%
viability, T/C (second compound 0.03 µM, first compound 0.01 µM): 93.1%
viability, T/C [1]: 79.7%
viability, T/C [2]: 83.1%
viability, T/C (second compound 0.0949 µM, first compound 0.000316 µM): 85.6%
viability, T/C (second compound 0.0949 µM, first compound 0.001 µM): 81%
viability, T/C (second compound 0.0949 µM, first compound 0.00316 µM): 93%
viability, T/C (second compound 0.0949 µM, first compound 0.01 µM): 83.5%
viability, T/C [3]: 75.5%
viability, T/C [4]: 85.9%
viability, T/C (second compound 0.3 µM, first compound 0.000316 µM): 87.3%
viability, T/C (second compound 0.3 µM, first compound 0.001 µM): 89.4%
viability, T/C (second compound 0.3 µM, first compound 0.00316 µM): 82.7%
viability, T/C (second compound 0.3 µM, first compound 0.01 µM): 79.7%
viability, T/C [5]: 78.3%
viability, T/C [6]: 88.4%
viability, T/C (second compound 0.949 µM, first compound 0.000316 µM): 90.1%
viability, T/C (second compound 0.949 µM, first compound 0.001 µM): 92.3%
viability, T/C (second compound 0.949 µM, first compound 0.00316 µM): 97%
viability, T/C (second compound 0.949 µM, first compound 0.01 µM): 82.5%
viability, T/C [7]: 81.5%
viability, T/C [8]: 83.7%
viability, T/C (second compound 3 µM, first compound 0.000316 µM): 90%
viability, T/C (second compound 3 µM, first compound 0.001 µM): 96.9%
viability, T/C (second compound 3 µM, first compound 0.00316 µM): 78.1%
viability, T/C (second compound 3 µM, first compound 0.01 µM): 74.5%
viability, T/C [9]: 84.1%
viability, T/C [10]: 85.2%

pIC50 (second compound 0.1 µM): 7.31
pIC50 (second compound 0.316 µM): 7.36
pIC50 (second compound 1 µM): 7.32
pIC50 (second compound 3.16 µM): 7.38
pIC50 (second compound 10 µM): 7.34
Structure (SMILES): COc1c(OCCCN2CCOCC2)ccc2c3n(c(=NC(=O)c4cnc(N)nc4)nc12)CCN3 + Cc1c(S(C)(=O)=O)c(-c2cc(F)cc(N3CCN(c4ccc(NS(=O)(=O)c5ccc(NC(CCN6CCC(C(=O)OCCCP(=O)(O)O)CC6)CSc6ccccc6)c(S(=O)(=O)C(F)(F)F)c5)cc4)CC3)c2)c(-c2ccc(Cl)cc2)n1C(C)C
viability, T/C [11]: 96.5%
viability, T/C [12]: 84.5%
viability, T/C [13]: 63.5%
viability, T/C [14]: 28.3%
viability, T/C [15]: 16%
viability, T/C [16]: 8.08%
viability, T/C [17]: 88%
viability, T/C [18]: 76.6%
viability, T/C [19]: 59.1%
viability, T/C [20]: 29.7%
viability, T/C [21]: 15.3%
viability, T/C [22]: 8.05%
viability, T/C [23]: 83.7%
viability, T/C [24]: 75.5%
viability, T/C [25]: 61.9%
viability, T/C [26]: 30.4%
viability, T/C [27]: 14.9%
viability, T/C [28]: 8.15%
viability, T/C (second compound 3.16 µM, first compound 0.00316 µM): 77.5%
viability, T/C (second compound 3.16 µM, first compound 0.01 µM): 77.5%
viability, T/C (second compound 3.16 µM, first compound 0.0316 µM): 54.9%
viability, T/C (second compound 3.16 µM, first compound 0.1 µM): 30.1%
viability, T/C (second compound 3.16 µM, first compound 0.316 µM): 14.3%
viability, T/C (second compound 3.16 µM, first compound 1 µM): 8.66%
viability, T/C (second compound 10 µM, first compound 0.00316 µM): 84.2%
viability, T/C (second compound 10 µM, first compound 0.01 µM): 87.7%
viability, T/C (second compound 10 µM, first compound 0.0316 µM): 55.6%
viability, T/C (second compound 10 µM, first compound 0.1 µM): 30.6%
viability, T/C (second compound 10 µM, first compound 0.316 µM): 15.8%
viability, T/C (second compound 10 µM, first compound 1 µM): 7.09%

pIC50 (second compound 0.01 µM): 7.28
pIC50 (second compound 0.0316 µM): 7.27
pIC50 (second compound 0.1 µM): 7.49
pIC50 (second compound 0.316 µM): 7.70
pIC50 (second compound 1 µM): 7.80
Structure (SMILES): COc1c(OCCCN2CCOCC2)ccc2c3n(c(=NC(=O)c4cnc(N)nc4)nc12)CCN3 + CNC(C)C(=O)NC1CN(S(=O)(=O)c2cccc(S(=O)(=O)N3CCC4CCC(C(=O)NC(c5ccccc5)c5ccccc5)N4C(=O)C(NC(=O)C(C)NC)C3)c2)CCC2CCC(C(=O)NC(c3ccccc3)c3ccccc3)N2C1=O
viability, T/C (second compound 0.01 µM, first compound 0.00316 µM): 84.8%
viability, T/C (second compound 0.01 µM, first compound 0.01 µM): 82.4%
viability, T/C (second compound 0.01 µM, first compound 0.0316 µM): 57.8%
viability, T/C (second compound 0.01 µM, first compound 0.1 µM): 37.3%
viability, T/C (second compound 0.01 µM, first compound 0.316 µM): 20.1%
viability, T/C (second compound 0.01 µM, first compound 1 µM): 12.5%
viability, T/C (second compound 0.0316 µM, first compound 0.00316 µM): 74.8%
viability, T/C (second compound 0.0316 µM, first compound 0.01 µM): 73.2%
viability, T/C (second compound 0.0316 µM, first compound 0.0316 µM): 60.7%
viability, T/C (second compound 0.0316 µM, first compound 0.1 µM): 36.6%
viability, T/C (second compound 0.0316 µM, first compound 0.316 µM): 19.3%
viability, T/C (second compound 0.0316 µM, first compound 1 µM): 11.4%
viability, T/C [11]: 66.1%
viability, T/C [12]: 63.5%
viability, T/C [13]: 47.9%
viability, T/C [14]: 36%
viability, T/C [15]: 17.5%
viability, T/C [16]: 11.2%
viability, T/C [17]: 60.8%
viability, T/C [18]: 54.6%
viability, T/C [19]: 47.8%
viability, T/C [20]: 29.1%
viability, T/C [21]: 18.2%
viability, T/C [22]: 9.08%
viability, T/C [23]: 53.7%
viability, T/C [24]: 56.6%
viability, T/C [25]: 43.6%
viability, T/C [26]: 28.3%
viability, T/C [27]: 15.6%
viability, T/C [28]: 9.01%

pIC50 (second compound 0.03 µM): < 5.00
pIC50 (second compound 0.0949 µM): < 5.00
pIC50 (second compound 0.3 µM): < 5.00
pIC50 (second compound 0.949 µM): < 5.00
pIC50 (second compound 3 µM): < 5.00
Structure (SMILES): C#Cc1c(F)ccc2cc(O)cc(-c3ncc4c(N5CC6CCC(C5)N6)nc(OCC56CCCN5CC(F)C6)nc4c3F)c12 (stereo not given) + CCN1C(C(=O)NC23CCC(C(=O)O)(CC2)CC3)C(c2cccc(Cl)c2F)C2(C(=O)Nc3cc(Cl)ccc32)C12CCCCC2
viability, T/C [1]: 96.1%
viability, T/C [2]: 102%
viability, T/C (second compound 0.03 µM, first compound 0.316 µM): 100%
viability, T/C (second compound 0.03 µM, first compound 1 µM): 96.2%
viability, T/C (second compound 0.03 µM, first compound 3.16 µM): 95.5%
viability, T/C (second compound 0.03 µM, first compound 10 µM): 79.4%
viability, T/C [3]: 101%
viability, T/C [4]: 95.3%
viability, T/C (second compound 0.0949 µM, first compound 0.316 µM): 96.2%
viability, T/C (second compound 0.0949 µM, first compound 1 µM): 84.8%
viability, T/C (second compound 0.0949 µM, first compound 3.16 µM): 87.3%
viability, T/C (second compound 0.0949 µM, first compound 10 µM): 69.9%
viability, T/C [5]: 99%
viability, T/C [6]: 104%
viability, T/C (second compound 0.3 µM, first compound 0.316 µM): 97.7%
viability, T/C (second compound 0.3 µM, first compound 1 µM): 101%
viability, T/C (second compound 0.3 µM, first compound 3.16 µM): 99.2%
viability, T/C (second compound 0.3 µM, first compound 10 µM): 88%
viability, T/C [7]: 92%
viability, T/C [8]: 103%
viability, T/C (second compound 0.949 µM, first compound 0.316 µM): 94.9%
viability, T/C (second compound 0.949 µM, first compound 1 µM): 88.7%
viability, T/C (second compound 0.949 µM, first compound 3.16 µM): 97.3%
viability, T/C (second compound 0.949 µM, first compound 10 µM): 93%
viability, T/C [9]: 103%
viability, T/C [10]: 94%
viability, T/C (second compound 3 µM, first compound 0.316 µM): 86.1%
viability, T/C (second compound 3 µM, first compound 1 µM): 98.6%
viability, T/C (second compound 3 µM, first compound 3.16 µM): 86.2%
viability, T/C (second compound 3 µM, first compound 10 µM): 78.5%
